In paper PMC3356977, “Chemical Inhibition of Bacterial Protein Tyrosine Phosphatase Suppresses Capsule Production” (PLoS ONE, 2012) one finds IC50 data, which are given here for one compound.

The structures appear in SMILES notation.

This assay deals with T1, CpsB (Streptococcus pneumoniae, UniProt Q9AHD4).
T1 construct: His6CpsB
The experiment in a line: inhibition of pNPP dephosphorylation by purified His6CpsB (A410). Format: biochemical.

T1 sequence (Q9AHD4 whole entry, looked up): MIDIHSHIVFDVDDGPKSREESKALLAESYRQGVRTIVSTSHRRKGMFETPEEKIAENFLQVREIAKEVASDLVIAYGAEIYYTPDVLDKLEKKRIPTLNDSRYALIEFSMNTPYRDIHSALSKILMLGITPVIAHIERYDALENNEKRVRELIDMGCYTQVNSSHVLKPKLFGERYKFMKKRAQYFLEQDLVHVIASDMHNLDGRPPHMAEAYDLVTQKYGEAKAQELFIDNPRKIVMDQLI

On to `CC(C)=CCC/C(C)=C/CC/C(C)=C/CC/C(C)=C/Cc1cc(OS(=O)(=O)O)ccc1O` [FQE, fascioquinol E], for which the midpoint of inhibition, the IC50, lay at 5.21 µM.
